Measured values reported in US20230114241A1, “METHODS OF TREATING EPILEPSY USING THE SAME” (Trevena, Inc., priority 2019, published 2023).

Legend:
[1] = target: T1, human sphingosine-1-phosphate receptor 1 (S1P1) (Homo sapiens, UniProt P21453); assay: Inhibition of cAMP production (HTRF cAMP HiRange), S1P1 CHO-K1 cells; format: cell-based; conditions: inhibition of cAMP production; for Emax: CHO-K1, efficacy normalized to maximum efficacy of fingolimod, read-out: hS1P1 CAMP SPAN; for EC50: potency, read-out: hS1P1 CAMP pEC50 (converted)
Summary of the method: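 CHO-K1 cells co-expressing human S1P1 (C-terminal ProLink tag) and EA-β-arrestin2, plated overnight; after 30 min compound incubation at 37 °C, intracellular cAMP measured by HTRF TR-FRET following 1 h at room temperature. Values normalized to fingolimod.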
Target sequence in this assay (P21453 whole entry): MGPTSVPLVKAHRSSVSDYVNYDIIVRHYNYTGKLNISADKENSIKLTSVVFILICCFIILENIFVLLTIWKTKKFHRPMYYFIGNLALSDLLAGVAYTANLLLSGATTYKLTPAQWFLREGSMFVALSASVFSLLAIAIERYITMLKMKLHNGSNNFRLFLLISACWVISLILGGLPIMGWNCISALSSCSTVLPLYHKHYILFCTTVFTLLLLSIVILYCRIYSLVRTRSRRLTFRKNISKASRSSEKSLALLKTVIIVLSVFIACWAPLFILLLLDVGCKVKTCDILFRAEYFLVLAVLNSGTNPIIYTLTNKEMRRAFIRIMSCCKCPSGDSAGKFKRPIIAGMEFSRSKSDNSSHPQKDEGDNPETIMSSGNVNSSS

[2] = target: T1, human sphingosine-1-phosphate receptor 1 (S1P1); assay: β-Arrestin2 recruitment assay (PathHunter), S1P1 CHO-K1 cells; format: cell-based; conditions: for Emax: CHO-K1, β-arrestin2 recruitment, efficacy normalized to maximum efficacy of fingolimod, read-out: hS1P1 B-arrestin2 SPAN; for EC50: β-arrestin2 recruitment, potency, read-out: hS1P1 B-arrestin2 pEC50 (converted)
Summary of the method: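 CHO-K1 cells co-expressing EA-β-arrestin2 and ProLink-tagged human S1P1 plated overnight, then stimulated 60 min at 37 °C. Enzyme-fragment complementation (β-galactosidase) detected after 1 h at room temperature by luminescence; values normalized to fingolimod.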
Target sequence in this assay (P21453 whole entry): as above
Target sequence in this assay (P32121 whole entry partner): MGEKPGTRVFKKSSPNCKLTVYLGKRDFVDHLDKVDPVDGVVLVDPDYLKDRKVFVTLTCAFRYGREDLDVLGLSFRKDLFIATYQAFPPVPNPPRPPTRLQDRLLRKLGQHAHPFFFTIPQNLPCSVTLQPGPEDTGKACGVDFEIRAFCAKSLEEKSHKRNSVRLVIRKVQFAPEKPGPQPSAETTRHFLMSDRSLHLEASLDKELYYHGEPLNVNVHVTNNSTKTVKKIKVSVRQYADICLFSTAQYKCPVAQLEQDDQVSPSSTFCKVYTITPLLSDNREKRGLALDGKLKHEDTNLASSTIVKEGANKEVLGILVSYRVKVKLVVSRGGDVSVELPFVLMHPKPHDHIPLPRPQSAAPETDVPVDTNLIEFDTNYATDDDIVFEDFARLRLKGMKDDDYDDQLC

[3] = target: human sphingosine-1-phosphate receptor 2 (S1P2) (Homo sapiens, UniProt O95136); assay: Selectivity: inositol monophosphate production (IP-one), S1P2 CHO-K1 cells; format: cell-based; conditions: for Emax: CHO-K1, efficacy normalized to maximal efficacy of CYM5520, read-out: hS1P2 IP-one SPAN; for EC50: inositol monophosphate accumulation, read-out: hS1P2 IP-one pEC50 (converted)
Sequence of human sphingosine-1-phosphate receptor 2 (S1P2) (O95136 whole entry): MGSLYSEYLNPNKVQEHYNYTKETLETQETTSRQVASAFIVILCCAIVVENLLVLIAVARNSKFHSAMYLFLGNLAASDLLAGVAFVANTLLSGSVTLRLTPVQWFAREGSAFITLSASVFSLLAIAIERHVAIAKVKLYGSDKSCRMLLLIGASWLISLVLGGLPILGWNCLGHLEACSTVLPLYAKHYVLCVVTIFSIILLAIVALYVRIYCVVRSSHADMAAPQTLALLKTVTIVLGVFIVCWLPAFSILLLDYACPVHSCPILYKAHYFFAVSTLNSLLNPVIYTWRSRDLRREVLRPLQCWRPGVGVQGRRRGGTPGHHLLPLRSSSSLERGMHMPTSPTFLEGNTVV

[4] = target: human sphingosine-1-phosphate receptor 3 (S1P3) (Homo sapiens, UniProt Q99500); assay: Selectivity: inhibition of cAMP production (HTRF), S1P3 CHO-K1 cells; format: cell-based; conditions: for Emax: CHO-K1, efficacy normalized to maximal efficacy of fimgolimod, read-out: hS1P3 cAMP SPAN; for EC50: inhibition of cAMP production, read-out: hS1P3 cAMP pEC50 (converted)
Sequence of human sphingosine-1-phosphate receptor 3 (S1P3) (Q99500 whole entry): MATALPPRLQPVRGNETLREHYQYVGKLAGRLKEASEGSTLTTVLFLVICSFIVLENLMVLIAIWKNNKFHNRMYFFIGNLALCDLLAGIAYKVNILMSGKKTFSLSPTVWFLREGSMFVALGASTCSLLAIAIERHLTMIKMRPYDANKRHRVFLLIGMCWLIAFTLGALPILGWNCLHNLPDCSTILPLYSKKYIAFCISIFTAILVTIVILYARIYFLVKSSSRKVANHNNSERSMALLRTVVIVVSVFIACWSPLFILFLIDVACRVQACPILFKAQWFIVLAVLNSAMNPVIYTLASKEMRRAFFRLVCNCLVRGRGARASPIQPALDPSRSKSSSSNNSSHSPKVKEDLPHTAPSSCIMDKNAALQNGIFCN

[5] = target: sphingosine-1-phosphate receptor 5 (S1P5) (Homo sapiens, UniProt Q9H228); assay: Selectivity: inhibition of cAMP production (HTRF), S1P5 CHO-K1 cells; format: cell-based; conditions: for Emax: CHO-K1, efficacy normalized to maximal efficacy of fimgolimod, read-out: hS1P5 cAMP SPAN; for EC50: inhibition of cAMP production, read-out: hS1P5 cAMP pEC50 (converted)
Sequence of sphingosine-1-phosphate receptor 5 (S1P5) (Q9H228 whole entry): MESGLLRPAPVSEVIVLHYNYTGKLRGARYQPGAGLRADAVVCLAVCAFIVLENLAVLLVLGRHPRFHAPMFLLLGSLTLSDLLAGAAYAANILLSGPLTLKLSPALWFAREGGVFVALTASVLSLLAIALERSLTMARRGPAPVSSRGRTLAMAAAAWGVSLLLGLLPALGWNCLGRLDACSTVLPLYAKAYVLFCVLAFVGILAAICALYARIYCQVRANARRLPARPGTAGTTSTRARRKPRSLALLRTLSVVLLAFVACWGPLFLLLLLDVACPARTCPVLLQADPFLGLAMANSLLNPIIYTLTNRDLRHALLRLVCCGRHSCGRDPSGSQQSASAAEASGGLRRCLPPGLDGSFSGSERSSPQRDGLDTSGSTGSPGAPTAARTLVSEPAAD

hERG channel = hERG channel (Homo sapiens, UniProt Q12809); assay: cell-based
Sequence of hERG channel (Q12809 whole entry): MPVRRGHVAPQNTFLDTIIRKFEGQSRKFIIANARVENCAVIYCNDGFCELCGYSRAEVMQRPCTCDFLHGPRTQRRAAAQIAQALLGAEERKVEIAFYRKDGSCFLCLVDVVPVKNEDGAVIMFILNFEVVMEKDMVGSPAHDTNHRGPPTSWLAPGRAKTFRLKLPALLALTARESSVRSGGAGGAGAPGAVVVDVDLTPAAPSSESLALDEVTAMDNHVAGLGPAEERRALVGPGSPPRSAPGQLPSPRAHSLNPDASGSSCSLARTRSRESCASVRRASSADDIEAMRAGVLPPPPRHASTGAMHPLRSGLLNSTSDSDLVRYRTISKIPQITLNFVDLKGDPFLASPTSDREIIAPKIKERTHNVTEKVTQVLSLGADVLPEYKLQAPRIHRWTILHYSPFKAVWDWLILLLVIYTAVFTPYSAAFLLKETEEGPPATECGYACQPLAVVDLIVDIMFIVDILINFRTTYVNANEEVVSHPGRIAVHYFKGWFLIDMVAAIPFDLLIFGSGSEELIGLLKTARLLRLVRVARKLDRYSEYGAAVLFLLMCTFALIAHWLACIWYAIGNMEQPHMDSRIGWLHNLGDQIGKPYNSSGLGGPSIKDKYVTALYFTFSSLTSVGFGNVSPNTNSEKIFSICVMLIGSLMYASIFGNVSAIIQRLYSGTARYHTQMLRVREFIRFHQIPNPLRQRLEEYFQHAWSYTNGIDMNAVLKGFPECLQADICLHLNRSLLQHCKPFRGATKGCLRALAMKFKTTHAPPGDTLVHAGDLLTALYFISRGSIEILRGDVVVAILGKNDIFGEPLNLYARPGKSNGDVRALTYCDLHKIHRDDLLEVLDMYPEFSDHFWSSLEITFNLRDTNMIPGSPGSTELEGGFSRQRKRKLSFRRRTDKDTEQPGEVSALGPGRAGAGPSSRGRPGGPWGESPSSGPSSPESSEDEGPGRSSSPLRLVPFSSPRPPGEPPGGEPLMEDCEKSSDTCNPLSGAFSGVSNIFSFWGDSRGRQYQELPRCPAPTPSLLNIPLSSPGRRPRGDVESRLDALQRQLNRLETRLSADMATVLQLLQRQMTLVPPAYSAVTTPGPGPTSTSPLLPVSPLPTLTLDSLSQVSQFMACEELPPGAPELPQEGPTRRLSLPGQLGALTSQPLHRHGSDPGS

[6] = system: peripheral blood lymphocytes; assay: Lymphopenia: peripheral blood lymphocyte counts, acute and chronic s.c. dosing; format: in vivo; conditions: 6 mg/kg sc, 7 days, c57bl/6 mice
Summary of the method: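 C57bl/6 mice given test compound s.c.: acute, single 3 mg/kg (n=5/group), sampled at set times; chronic, 3-7 days at ≥5-fold the efficacious dose (n=6-8/group), sampled 45 min to 6 h after last dose. EDTA whole-blood lymphocyte counts (10^3 cells/μl) by Advia 120, compared with vehicle.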

Row | Compound | Emax [1] [%] | EC50 [1] [µM] | Emax [2] [%] | EC50 [2] [µM] | Emax [3] [%] | EC50 [3] [µM] | Emax [4] [%] | EC50 [4] [µM] | Emax [5] [%] | EC50 [5] [µM] | IC50 (hERG channel) [µM] | Lymphopenia effect (peripheral blood lymphocytes) [6]
1 | COc1ccc(-c2noc(-c3ccc4c(c3)nnn4CC(C)(C)O)n2)c(C)c1 [Compound 26, 1-{5-[3-(4-methoxy-2-methylphenyl)-1,2,4-oxadiazol-5-yl]-1H-1,2,3-benzo-triazol-1-yl}-2-methylpropan-2-ol] | > 75 | < 0.316 | > 75 | < 10 | < 50 | > 10 | < 50 | > 10 | < 50 | > 10 | > 10 | –
2 | CC(C)Nc1ccc(-c2nc(-c3ccc4nonc4c3)no2)cc1C#N [Compound 730, 5-[3-(2,1,3-benzoxa-diazol-5-yl)-1,2,4-oxadiazol-5-yl]-2-[(propan-2-yl)amino]benzonitrile] | – | – | – | – | – | – | – | – | – | – | > 10 | no change: 6 mg/kg, 7 days
3 | CC(C)n1nnc2cc(-c3nc(-c4cccc5c4OCCC5)no3)ccc21 [Compound 304, 3-chroman-8-yl-5-(1-isopropylbenzotriazol-5-yl)-1,2,4-oxadiazole] | < 75 | < 0.316 | > 75 | < 10 | < 50 | > 10 | < 50 | < 10 | < 50 | > 10 | > 10 | no change: 6 mg/kg, 7 days
